Assay [1] is described as follows: Compound was tested for its inhibitory activity against venom NAD glycohydrolase. On the set-up: species or system Bungarus fasciatus.
Assay [2] can be described thus: Compound was tested for the inhibitor activity against NAD glycohydrolase. The arrangement: species or system Bungarus fasciatus.
Assay [3] deals with Poly(ADP-ribose) glycohydrolase (Bos taurus) (UniProt O02776). In words: Kid describes the approach of hyperbolic function to its new limiting value as [I] increases, for the 1/V vs [I] replot.
For assay [4] the target is unchanged. Description: Kid describes the approach of hyperbolic function to its new limiting value as [I] increases, for the KM/V vs [I] replot.
For assay [5] the target is unchanged. In words: Inhibitor dissociation constant for the 1/V vs [I] replot.
For assay [6] the target is unchanged. In words: Inhibitor dissociation constant was determined by the analysis of the slope versus [inhibitor] replot.e.K.

Structures are written as SMILES.

Chain of Poly(ADP-ribose) glycohydrolase (Bos taurus) (O02776 whole entry): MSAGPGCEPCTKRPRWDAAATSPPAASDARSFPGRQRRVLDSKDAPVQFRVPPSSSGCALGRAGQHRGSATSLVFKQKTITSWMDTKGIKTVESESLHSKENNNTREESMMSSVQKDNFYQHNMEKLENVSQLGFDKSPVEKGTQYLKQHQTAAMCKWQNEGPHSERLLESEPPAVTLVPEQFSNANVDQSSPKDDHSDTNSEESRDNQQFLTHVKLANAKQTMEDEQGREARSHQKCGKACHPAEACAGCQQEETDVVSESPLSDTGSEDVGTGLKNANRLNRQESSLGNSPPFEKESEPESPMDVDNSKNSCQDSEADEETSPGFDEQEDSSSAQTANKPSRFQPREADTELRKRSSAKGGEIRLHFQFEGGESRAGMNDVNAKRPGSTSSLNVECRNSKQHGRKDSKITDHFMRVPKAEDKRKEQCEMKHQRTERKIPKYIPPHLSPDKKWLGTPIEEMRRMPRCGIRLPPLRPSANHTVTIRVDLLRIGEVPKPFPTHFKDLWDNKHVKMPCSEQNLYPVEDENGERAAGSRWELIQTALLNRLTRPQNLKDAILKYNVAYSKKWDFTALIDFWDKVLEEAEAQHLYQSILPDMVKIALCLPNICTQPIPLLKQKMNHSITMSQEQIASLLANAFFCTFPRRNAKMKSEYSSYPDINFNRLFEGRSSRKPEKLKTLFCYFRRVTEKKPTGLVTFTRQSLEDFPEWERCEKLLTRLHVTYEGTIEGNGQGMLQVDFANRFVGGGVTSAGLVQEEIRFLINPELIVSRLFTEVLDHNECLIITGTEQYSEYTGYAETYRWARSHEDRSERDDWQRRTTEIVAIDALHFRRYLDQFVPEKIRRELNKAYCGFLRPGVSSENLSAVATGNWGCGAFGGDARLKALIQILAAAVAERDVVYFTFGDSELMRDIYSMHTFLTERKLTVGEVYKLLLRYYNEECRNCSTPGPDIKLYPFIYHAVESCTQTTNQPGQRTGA

Broadly, the IC50 is the point on the concentration scale where inhibition reaches its midpoint. A lower IC50 goes with greater potency in that assay. Broadly, the Ki is the equilibrium dissociation constant of an inhibitor or competing ligand from its target. In assay [1], `Nc1ncnc2c1ncn2[C@@H]1O[C@H](COP(=O)(O)OP(=O)(O)OC[C@H]2NC[C@H](O)[C@@H]2O)[C@@H](O)[C@H]1O` [ADENOSINE DIPHOSPHATE (HYDROXYMETHYL)PYRROLIDINEDIOL] registered an IC50 of 260 µM. Also, in assay [2], the affinity, expressed as Ki, was 94 µM. The Kid in assay [3] was found to be 0.21 µM; in assay [4] it was 0.26 µM. Moreover, the Kin in assay [5] is 0.052 µM; in assay [6], 0.08 µM.

The record behind these values is ChEMBL document CHEMBL1128639, “Mechanism of inhibition of poly(ADP-ribose) glycohydrolase by adenosine diphosphate (hydroxymethyl)pyrrolidinediol” (J Med Chem, 1995).
